Measured values: ChEMBL document CHEMBL5053494, “Novel halogenated arylvinyl-1,2,4 trioxanes as potent antiplasmodial as well as anticancer agents: Synthesis, bioevaluation, structure-activity relationship and in-silico studies” (Eur J Med Chem, 2021)
Activity calls are given as the source filed them. The rule behind the calls is not given here.

Assays:
Plasmodium falciparum [1] = test: Antiplasmodial activity against chloroquine-resistant Plasmodium falciparum INDO assessed as growth inhibition by SYBER green 1 dye based fluorescence assay; format: functional, organism-based
L02 = test: Anticancer activity against human L02 cells assessed as cell growth inhibition measured for 72 hrs by MTT assay; format: functional, cell-based; conditions: L02, 72 h
Plasmodium falciparum [2] = test: Antiplasmodial activity against ring stage chloroquine-resistant Plasmodium falciparum INDO assessed as percentage survival at 70 nM for 6 hrs by ring stage survival assay; format: functional, organism-based
Plasmodium falciparum [3] = test: Antiplasmodial activity against artemisinin-resistant Plasmodium falciparum Cam 3.1 R539 assessed as growth inhibition by SYBER green 1 dye based fluorescence assay; format: functional, organism-based
HepG2 = test: Anticancer activity against human HepG2 cells assessed as cell growth inhibition measured for 72 hrs by MTT assay; format: functional, cell-based; conditions: HepG2, 72 h
A549 = test: Anticancer activity against human A549 cells assessed as cell growth inhibition measured for 72 hrs by MTT assay; format: functional, cell-based; conditions: A549, 72 h
Plasmodium falciparum [4] = test: Antiplasmodial activity against ring stage chloroquine-resistant Plasmodium falciparum Cam 3.1 R539 assessed as percentage survival at 700 nM for 6 hrs by ring stage survival assay relative to control; format: functional
[5] = Cytotoxicity against human HEK293 cells assessed as cell viability measured for 24 hrs by MTT assay; format: cell-based
[6] = Selectivity index, ratio of CC50 for human HEK293 cells to IC50 for antiplasmodial activity against chloroquine-resistant Plasmodium falciparum INDO; format: toxicity; conditions: HEK293 cells versus Plasmodium falciparum INDO
[7] = Selectivity ratio of IC50 for anticancer activity against human L02 cells to IC50 for anticancer activity against human HepG2 cells; format: toxicity, cell-based; conditions: L02 cells versus HepG2 cells, read-out: Ratio IC50
Plasmodium falciparum [8] = test: Resistance index, ratio of IC50 for antiplasmodial activity against artemisinin-resistant Plasmodium falciparum Cam 3.1 R539 to IC50 for antiplasmodial activity against chloroquine-resistant Plasmodium falciparum INDO; format: functional
Plasmodium falciparum [9] = test: Antiplasmodial activity against ring stage chloroquine-resistant Plasmodium falciparum Cam 3.1 R539 assessed as percentage survival at 70 nM for 6 hrs by ring stage survival assay; format: functional
[10] = Selectivity ratio of IC50 for anticancer activity against human BEAS-2B cells to IC50 for anticancer activity against human A549 cells; format: toxicity, cell-based; conditions: BEAS-2B cells versus A549 cells, read-out: Ratio IC50
BEAS-2B = test: Anticancer activity against human BEAS-2B cells assessed as cell growth inhibition measured for 72 hrs by MTT assay; format: functional, cell-based
Plasmodium falciparum [11] = test: Antiplasmodial activity against ring stage chloroquine resistant Plasmodium falciparum INDO assessed as percentage survival at 700 nM for 6 hrs by ring stage survival assay; format: functional
Plasmodium berghei [12] = test: Antimalarial activity against Plasmodium berghei ANKA infected in Balb/c mouse assessed as suppression of parasitemia at 50 mg/kg, po administered for 4 days by microscopic analysis; format: functional; conditions: time 4 day
Plasmodium berghei [13] = test: Antimalarial activity against Plasmodium berghei ANKA infected in Balb/c mouse assessed as suppression of parasitemia at 50 mg/kg, ip administered for 4 days by microscopic analysis; format: functional; conditions: time 4 day

Row | SMILES | IC50 (Plasmodium falciparum [1]) [µM] | IC50 (L02) [µM] | Activity (Plasmodium falciparum [2]) | IC50 (Plasmodium falciparum [3]) [µM] | IC50 (HepG2) [µM] | IC50 (A549) [µM] | Activity (Plasmodium falciparum [4]) [%] | CC50 at 24 h [5] [µM] | selectivity ratio [6] | selectivity ratio [7] | Ratio IC50 (Plasmodium falciparum [8]) | Activity (Plasmodium falciparum [9]) [%] | selectivity ratio [10] | IC50 (BEAS-2B) [µM] | Activity (Plasmodium falciparum [11]) [%] | Activity (Plasmodium berghei [12]) [%] | Activity (Plasmodium berghei [13]) [%]
1 | C[C@@H]1CC[C@H]2[C@@H](C)C(=O)O[C@@H]3O[C@@]4(C)CC[C@@H]1[C@]32OO4 [ARTEMISININ] | 0.0066 | 8.25 | inactive | 0.0135 | 4.09 | 9.85 | 20 | > 26 | 4330 | 2.01 | 2.05 | 50 | 0.76 | 7.53 | 10 |  | 
2 | C=C(c1ccc(F)cc1F)C1COC2(OO1)C1CC3CC(C1)CC2C3 (stereo not drawn) | > 0.1 | 10.9 |  |  | 65.6 | 4.43 |  |  |  | 0.16 |  |  | 10.5 | 46.4 |  |  | 
3 | C=C(c1ccc(F)c(F)c1)C1COC(C)(C)OO1 (stereo not drawn) | > 0.1 | > 100 |  |  | > 100 | > 100 |  |  |  |  |  |  |  | > 100 |  |  | 
4 | C=C(c1cc(Cl)cc(Cl)c1OCc1ccccc1)C1COC2(OO1)C1CC3CC(C1)CC2C3 (stereo not drawn) | 0.0224 | > 100 |  | 0.043 | > 100 | 31.6 |  | 60.9 | 2770 | 1.62 | 1.93 |  |  | > 100 |  |  | 
5 | C=C(c1ccc(OC)c(F)c1)C1COC2(CCCCC2)OO1 (stereo not drawn) | > 0.1 | 15.4 |  |  | 13.1 | 6.53 |  |  |  | 1.17 |  |  | 5.77 | 37.7 |  |  | 
6 | C=C(c1ccc(Cl)c(Cl)c1Cl)C1COC2(CCCCC2)OO1 (stereo not drawn) | > 0.1 | 1.22 |  |  | 9.02 | 1.37 |  |  |  | 0.72 |  |  | 7.51 | 10.3 |  |  | 
7 | C=C(c1ccc(F)c(F)c1)C1COC2(CCCC2)OO1 (stereo not drawn) | 0.0266 | 8.84 |  | 0.196 | 38.6 | 11.7 |  | 23.3 | 895 | 0.36 | 7.36 |  | 7.76 | 73.6 |  |  | 
8 | C=C(c1ccc(F)c(F)c1)C1COC2(CCCCC2)OO1 (stereo not drawn) | > 0.1 | 16.5 |  |  | 28.6 | 7.88 |  |  |  | 0.22 |  |  | 1.26 | 61.2 |  |  | 
9 | C=C(c1ccc(F)c(F)c1)C1COC2(OO1)C1CC3CC(C1)CC2C3 (stereo not drawn) | 0.0123 | 9.48 |  | 0.0414 | 26.1 | 4.97 |  | 12.6 | 1050 | 0.48 | 3.39 |  | 6.29 | 57.1 |  |  | 
10 | C=C(c1ccc(Cl)c(Cl)c1)C1COC2(CCCC2)OO1 (stereo not drawn) | > 0.1 | 8.45 |  |  | 62.6 | 4.68 |  |  |  | 0.13 |  |  | 10.9 | 50.9 |  |  | 
11 | C=C(c1ccc(Cl)c(Cl)c1Cl)C1COC(C)(C)OO1 (stereo not drawn) | > 0.1 | 18.1 |  |  | 27.3 | 52.1 |  |  |  | 0.14 |  |  | 0.19 | 10.2 |  |  | 
12 | C=C(c1cc(Cl)cc(Cl)c1OCc1ccccc1)C1COC2(CCCCC2)OO1 (stereo not drawn) | > 0.1 | > 100 |  |  | > 100 | > 100 |  |  |  |  |  |  |  | > 100 |  |  | 
13 | C=C(c1ccc(F)cc1F)C1COC(C)(C)OO1 (stereo not drawn) | > 0.1 | > 100 |  |  | > 100 | > 100 |  |  |  |  |  |  |  | > 100 |  |  | 
14 | C=C(c1ccc(Cl)c(Cl)c1)C1COC2(OO1)C1CC3CC(C1)CC2C3 (stereo not drawn) | 0.0224 | 3.36 |  | 0.05 | 34.3 | 2.93 |  | 13.2 | 599 | 0.5 | 2.24 |  | 9.11 | 26.7 |  |  | 
15 | C=C(c1ccc(Cl)c(Cl)c1)C1COC2(CCCCC2)OO1 (stereo not drawn) | > 0.1 | 83.5 |  |  | 83.5 | 12.8 |  |  |  | 2.37 |  |  | 3.07 | 39.4 |  |  | 
16 | C=C(c1ccc(Cl)cc1Cl)C1COC(C)(C)OO1 (stereo not drawn) | > 0.1 | 37.7 |  |  | 90.5 | 92.6 |  |  |  | 0.16 |  |  | 0.74 | 68.6 |  |  | 
17 | C=C(c1ccc(Cl)cc1Cl)C1COC2(OO1)C1CC3CC(C1)CC2C3 (stereo not drawn) | 0.0154 | 12.5 |  | 0.0462 | 17.2 | 9.92 |  | 14.8 | 989 | 0.41 | 2.99 |  | 1.02 | 10.2 |  |  | 
18 | C=C(c1ccc(OC)c(F)c1)C1COC2(CCCC2)OO1 (stereo not drawn) | 0.0111 | 18.5 |  | 0.0864 | 29.3 | 9.7 |  | 33 | 3000 | 0.63 | 7.8 |  | 5.75 | 55.8 |  |  | 
19 | C=C(c1ccc(F)cc1F)C1COC2(CCCCC2)OO1 (stereo not drawn) | > 0.1 | 17.6 |  |  | 36 | > 100 |  |  |  |  |  |  | 11.5 | 49.7 |  |  | 
20 | C=C(c1ccc(OC)c(F)c1)C1COC(C)(C)OO1 (stereo not drawn) | > 0.1 | > 100 |  |  | > 100 | 100 |  |  |  | 0.37 |  |  |  | 68.7 |  |  | 
21 | C=C(c1ccc(Cl)c(Cl)c1Cl)C1COC2(OO1)C1CC3CC(C1)CC2C3 (stereo not drawn) | 0.0421 | 6.56 |  |  | 34.4 | 15 |  | 75.8 | 1810 | 0.66 |  |  | 1.17 | 17.6 |  |  | 
22 | C=C(c1cc(Cl)cc(Cl)c1OCc1ccccc1)C1COC(C)(C)OO1 (stereo not drawn) | 0.04 | 64.1 |  | 0.0173 | 39.5 | 58.4 |  | 31.6 | 811 | 4.78 | 0.44 |  | 3.16 | 25.5 |  |  | 
23 | C=C(c1ccc(F)cc1F)C1COC2(CCCC2)OO1 (stereo not drawn) | > 0.1 | 17.6 |  |  | 15.4 | 5.09 |  |  |  | 1.14 |  |  | 12.3 | 62.6 |  |  | 
24 | C=C(c1cc(Cl)cc(Cl)c1OCc1ccccc1)C1COC2(CCCC2)OO1 (stereo not drawn) | 0.0316 | 65.6 |  |  | 13.7 | 2.07 |  | 2.26 | 72.9 | 0.19 |  |  | 0.43 | 28.6 |  |  | 
25 | CC(=O)O[C@H]1C(=O)[C@@]2(C)[C@H]([C@H](OC(=O)c3ccccc3)[C@]3(O)C[C@H](OC(=O)[C@H](O)[C@@H](NC(=O)c4ccccc4)c4ccccc4)C(C)=C1C3(C)C)[C@]1(OC(C)=O)CO[C@@H]1C[C@@H]2O [PACLITAXEL] |  | < 0.1 |  |  | 0.19 |  |  |  |  |  |  |  |  | < 0.1 |  |  | 
26 | CCN(CC)CCCC(C)Nc1ccnc2cc(Cl)ccc12 (stereo not drawn) [CHLOROQUINE] |  | 15 |  |  | 49 | 100 |  |  |  |  |  |  |  | 3.07 |  | 100 | 100
27 | C=C(c1ccc(Cl)c(Cl)c1)C1COC(C)(C)OO1 (stereo not drawn) | > 0.1 | 50.9 |  |  | > 100 | > 100 |  |  |  |  |  |  |  | > 100 |  |  | 
